Experimental data as given in ChEMBL document CHEMBL1201862, “PubChem BioAssay data set” (2004).
Activity calls are given as the source filed them.

Legend:
[1] = biological target: Ras and Rab interactor 1/Tyrosine-protein kinase ABL1 (Homo sapiens, UniProt P00519+Q13671); assay type: functional;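 note: biochemical TR-FRET dose-response test measuring inhibition of binding between Rin1 and Abl proteins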
Leucine aminopeptidase = biological target: T1, Leucine aminopeptidase (Plasmodium falciparum 3D7, UniProt Q8IL11); assay: P. falciparum M17LAP inhibitors, primary screen, biochemical, fluorogenic H-Leu-NHMec substrate, 1536-well (AID 1619); assay type: functional
T1 sequence (Q8IL11 whole entry): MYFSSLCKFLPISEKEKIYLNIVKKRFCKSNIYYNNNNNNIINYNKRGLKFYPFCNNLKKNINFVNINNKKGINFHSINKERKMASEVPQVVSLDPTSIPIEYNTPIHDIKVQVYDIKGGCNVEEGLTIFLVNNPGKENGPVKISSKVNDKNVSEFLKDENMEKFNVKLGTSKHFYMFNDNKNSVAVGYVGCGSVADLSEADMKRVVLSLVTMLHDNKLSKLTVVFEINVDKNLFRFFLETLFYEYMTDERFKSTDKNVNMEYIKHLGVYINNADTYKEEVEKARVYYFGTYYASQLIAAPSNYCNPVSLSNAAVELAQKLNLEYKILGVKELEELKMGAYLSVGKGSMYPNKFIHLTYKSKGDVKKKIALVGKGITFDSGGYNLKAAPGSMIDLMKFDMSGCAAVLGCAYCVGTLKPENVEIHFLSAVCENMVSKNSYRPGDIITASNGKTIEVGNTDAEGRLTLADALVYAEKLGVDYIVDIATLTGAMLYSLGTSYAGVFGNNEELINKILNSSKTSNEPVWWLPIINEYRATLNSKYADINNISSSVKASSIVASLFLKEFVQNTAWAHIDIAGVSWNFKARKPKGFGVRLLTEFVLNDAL

[2] = biological target: T2, Mannose-6-phosphate isomerase (Homo sapiens, UniProt P34949); assay: phosphomannose isomerase inhibition – biochemical, fluorescence intensity, confirmation (AID 1535)
T2 sequence (P34949 whole entry): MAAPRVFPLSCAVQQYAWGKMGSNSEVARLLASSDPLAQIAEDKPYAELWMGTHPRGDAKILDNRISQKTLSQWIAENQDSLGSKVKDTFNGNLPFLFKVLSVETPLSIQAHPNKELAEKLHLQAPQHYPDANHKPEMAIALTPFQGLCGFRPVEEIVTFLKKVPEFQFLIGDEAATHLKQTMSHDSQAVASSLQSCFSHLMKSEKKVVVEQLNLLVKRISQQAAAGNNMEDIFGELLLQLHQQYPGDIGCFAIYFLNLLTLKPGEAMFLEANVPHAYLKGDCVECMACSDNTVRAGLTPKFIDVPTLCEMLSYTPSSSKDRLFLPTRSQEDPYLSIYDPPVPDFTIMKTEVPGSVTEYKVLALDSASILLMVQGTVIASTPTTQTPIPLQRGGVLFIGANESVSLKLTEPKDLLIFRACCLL

[3] = biological target: Glucose-6-phosphate 1-dehydrogenase (Homo sapiens, UniProt P11413); assay: inhibition of Homo sapiens G6PD, dose series – biochemical, fluorescence, selectivity assay for P. falciparum G6PD inhibitor project, dose response (AID 504792); assay type: functional
Glucose-6-phosphate 1-dehydrogenase, sequence (P11413 whole entry): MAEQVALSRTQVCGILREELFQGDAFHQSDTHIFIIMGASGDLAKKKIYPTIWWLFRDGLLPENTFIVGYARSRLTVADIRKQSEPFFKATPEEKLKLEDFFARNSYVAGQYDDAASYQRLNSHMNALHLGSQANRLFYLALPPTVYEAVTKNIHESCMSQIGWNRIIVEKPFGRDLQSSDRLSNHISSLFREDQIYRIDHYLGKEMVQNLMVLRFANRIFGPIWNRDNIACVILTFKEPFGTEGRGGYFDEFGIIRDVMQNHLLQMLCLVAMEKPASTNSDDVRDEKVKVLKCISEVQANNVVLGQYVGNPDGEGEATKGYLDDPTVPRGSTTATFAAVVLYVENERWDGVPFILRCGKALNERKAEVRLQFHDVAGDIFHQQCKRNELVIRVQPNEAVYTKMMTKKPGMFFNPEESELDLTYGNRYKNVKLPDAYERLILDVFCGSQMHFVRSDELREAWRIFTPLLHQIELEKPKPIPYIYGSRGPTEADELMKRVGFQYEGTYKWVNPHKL

Insulin-degrading enzyme = biological target: T3, Insulin-degrading enzyme (Homo sapiens, UniProt P14735); assay: Dose Response: Fluorescence polarization-based cell-based high throughput dose response assay for inhibitors of insulin-degrading enzyme (IDE). [Related pubchem assays: 434962 (Primary screen (IDE inhibitors in singlicate)), 449730 (Counterscreen (Cytotoxicity in triplicate)), 435028 (Confirmation (IDE inhibitors in triplicate)), 434984 (Summary …; assay type: functional
T3 sequence (P14735 whole entry): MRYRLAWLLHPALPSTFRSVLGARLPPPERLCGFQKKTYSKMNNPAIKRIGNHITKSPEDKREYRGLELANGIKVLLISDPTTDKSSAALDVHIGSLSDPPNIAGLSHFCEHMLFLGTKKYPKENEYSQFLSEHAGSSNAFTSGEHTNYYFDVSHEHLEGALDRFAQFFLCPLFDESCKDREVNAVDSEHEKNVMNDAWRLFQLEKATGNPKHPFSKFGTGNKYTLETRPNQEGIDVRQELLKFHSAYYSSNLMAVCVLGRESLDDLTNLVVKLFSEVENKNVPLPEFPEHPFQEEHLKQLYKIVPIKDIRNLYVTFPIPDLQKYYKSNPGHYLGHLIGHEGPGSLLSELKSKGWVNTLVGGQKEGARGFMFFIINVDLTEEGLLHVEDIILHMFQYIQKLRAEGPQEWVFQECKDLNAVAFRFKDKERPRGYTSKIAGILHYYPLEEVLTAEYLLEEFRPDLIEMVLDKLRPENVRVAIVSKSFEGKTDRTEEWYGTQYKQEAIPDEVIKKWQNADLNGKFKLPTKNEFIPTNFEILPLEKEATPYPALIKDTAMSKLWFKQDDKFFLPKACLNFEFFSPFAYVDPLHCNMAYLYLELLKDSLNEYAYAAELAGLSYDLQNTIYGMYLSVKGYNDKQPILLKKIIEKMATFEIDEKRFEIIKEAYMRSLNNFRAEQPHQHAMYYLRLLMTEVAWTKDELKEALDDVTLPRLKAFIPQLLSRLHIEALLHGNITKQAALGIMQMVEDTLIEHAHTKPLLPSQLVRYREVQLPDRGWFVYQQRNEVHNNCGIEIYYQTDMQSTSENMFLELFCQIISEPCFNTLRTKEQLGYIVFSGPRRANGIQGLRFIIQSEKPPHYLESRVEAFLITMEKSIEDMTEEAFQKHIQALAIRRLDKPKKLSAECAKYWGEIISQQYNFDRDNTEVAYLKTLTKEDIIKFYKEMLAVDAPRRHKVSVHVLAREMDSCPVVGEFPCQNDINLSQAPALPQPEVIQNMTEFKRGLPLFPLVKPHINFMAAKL

Vero = assay: viability of Vero cells under compound – cytotoxicity control for flavivirus capping enzyme inhibitors (AID 588742); assay type: functional; settings: Chlorocebus sabaeus
Large T antigen = Large T antigen (Simian virus 40, UniProt P03070); assay type: functional, Betapolyomavirus macacae;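 note: Confirmatory-stage PubChem screen for compounds that inhibit SV40 T antigen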
Large T antigen, sequence (P03070 whole entry): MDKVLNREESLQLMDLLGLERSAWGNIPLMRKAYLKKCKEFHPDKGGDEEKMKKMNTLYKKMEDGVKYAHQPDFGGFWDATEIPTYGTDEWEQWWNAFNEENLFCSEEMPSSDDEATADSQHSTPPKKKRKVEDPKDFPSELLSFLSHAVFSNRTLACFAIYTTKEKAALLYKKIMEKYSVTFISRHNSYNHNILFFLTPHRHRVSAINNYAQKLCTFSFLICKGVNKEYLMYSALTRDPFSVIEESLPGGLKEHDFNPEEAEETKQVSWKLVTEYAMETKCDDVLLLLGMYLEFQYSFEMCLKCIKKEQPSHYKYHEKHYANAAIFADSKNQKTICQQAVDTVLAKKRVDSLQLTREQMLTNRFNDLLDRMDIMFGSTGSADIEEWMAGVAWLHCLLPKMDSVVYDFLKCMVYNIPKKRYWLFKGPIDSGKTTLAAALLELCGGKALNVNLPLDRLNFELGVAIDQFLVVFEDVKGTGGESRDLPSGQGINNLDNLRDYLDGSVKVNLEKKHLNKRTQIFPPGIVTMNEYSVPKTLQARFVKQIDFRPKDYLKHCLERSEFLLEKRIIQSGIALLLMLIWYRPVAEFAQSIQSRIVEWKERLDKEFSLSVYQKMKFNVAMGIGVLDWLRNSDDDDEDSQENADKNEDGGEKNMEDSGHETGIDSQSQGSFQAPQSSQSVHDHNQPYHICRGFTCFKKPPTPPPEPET

[4] = biological target: T4, Alkaline phosphatase, tissue-nonspecific isozyme (Homo sapiens, UniProt P05186); assay: potency against alkaline phosphatase TNAP – biochemical, luminescent, dose response, SAR follow-up (AID 1056)
T4 sequence (P05186 whole entry): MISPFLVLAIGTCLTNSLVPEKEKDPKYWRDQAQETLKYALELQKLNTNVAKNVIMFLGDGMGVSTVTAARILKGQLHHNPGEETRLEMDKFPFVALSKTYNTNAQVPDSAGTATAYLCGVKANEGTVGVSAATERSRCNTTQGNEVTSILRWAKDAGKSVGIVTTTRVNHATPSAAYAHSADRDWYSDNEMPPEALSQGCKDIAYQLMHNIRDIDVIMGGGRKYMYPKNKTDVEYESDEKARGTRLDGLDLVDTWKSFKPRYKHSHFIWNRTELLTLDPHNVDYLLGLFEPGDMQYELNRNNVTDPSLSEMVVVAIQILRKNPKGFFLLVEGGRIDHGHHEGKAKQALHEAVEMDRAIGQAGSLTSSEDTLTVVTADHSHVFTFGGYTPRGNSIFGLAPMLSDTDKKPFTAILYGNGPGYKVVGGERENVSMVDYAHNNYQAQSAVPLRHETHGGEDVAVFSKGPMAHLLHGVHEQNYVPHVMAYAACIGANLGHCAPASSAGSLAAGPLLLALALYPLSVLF

Genome polyprotein = Genome polyprotein (dengue virus type 2, UniProt P29990); assay: flavivirus cap methylation enzyme inhibition – biochemical, confirmation dose response, primary screen (AID 588689); assay type: functional
Genome polyprotein, sequence (P29990 2492-3391 limits assumed): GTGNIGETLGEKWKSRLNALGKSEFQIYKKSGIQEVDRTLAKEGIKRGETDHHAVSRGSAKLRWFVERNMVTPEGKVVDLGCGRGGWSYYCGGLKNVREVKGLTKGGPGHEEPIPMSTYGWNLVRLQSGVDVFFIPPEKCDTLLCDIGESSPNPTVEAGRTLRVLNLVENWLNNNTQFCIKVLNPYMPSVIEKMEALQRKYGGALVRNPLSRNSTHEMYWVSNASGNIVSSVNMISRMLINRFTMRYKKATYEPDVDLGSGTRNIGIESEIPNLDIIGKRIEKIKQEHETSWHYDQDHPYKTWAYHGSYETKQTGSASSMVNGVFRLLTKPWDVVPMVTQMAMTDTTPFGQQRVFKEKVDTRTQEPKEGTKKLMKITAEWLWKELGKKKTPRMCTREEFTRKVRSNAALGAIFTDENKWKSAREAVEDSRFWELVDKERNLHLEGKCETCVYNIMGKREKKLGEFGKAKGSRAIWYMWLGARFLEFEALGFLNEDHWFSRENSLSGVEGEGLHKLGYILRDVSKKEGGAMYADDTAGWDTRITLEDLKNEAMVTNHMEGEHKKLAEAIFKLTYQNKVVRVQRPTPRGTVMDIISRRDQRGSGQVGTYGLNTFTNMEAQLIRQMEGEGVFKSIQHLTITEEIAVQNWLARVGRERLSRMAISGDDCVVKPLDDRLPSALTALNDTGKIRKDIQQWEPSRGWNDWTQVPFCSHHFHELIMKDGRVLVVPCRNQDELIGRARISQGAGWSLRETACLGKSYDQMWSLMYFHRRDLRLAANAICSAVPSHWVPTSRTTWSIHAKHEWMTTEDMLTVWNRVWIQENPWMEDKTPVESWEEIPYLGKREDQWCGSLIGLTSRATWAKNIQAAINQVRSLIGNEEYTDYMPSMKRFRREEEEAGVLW

[5] = biological target: DNA dC->dU-editing enzyme APOBEC-3A (Homo sapiens, UniProt P31941); assay: A3A deaminase inhibition for selectivity – biochemical, dose response (AID 504722); assay type: functional
DNA dC->dU-editing enzyme APOBEC-3A, sequence (P31941 whole entry): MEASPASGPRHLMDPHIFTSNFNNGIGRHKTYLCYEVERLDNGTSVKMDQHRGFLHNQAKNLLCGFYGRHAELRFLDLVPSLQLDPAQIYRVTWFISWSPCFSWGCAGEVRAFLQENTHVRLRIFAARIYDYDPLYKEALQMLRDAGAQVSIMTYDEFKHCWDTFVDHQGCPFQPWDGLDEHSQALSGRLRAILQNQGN

Orexin receptor type 2 [6] = biological target: T5, Orexin receptor type 2 (Homo sapiens, UniProt O43614); assay: Counterscreen assay for antagonists of the orexin 1 receptor (OX1R; HCRTR1): Fluorescence-based cell-based dose response assay for antagonists of the orexin 2 receptor (OX2R; HCRTR2), run by assay provider.; assay type: functional
T5 sequence (O43614 whole entry): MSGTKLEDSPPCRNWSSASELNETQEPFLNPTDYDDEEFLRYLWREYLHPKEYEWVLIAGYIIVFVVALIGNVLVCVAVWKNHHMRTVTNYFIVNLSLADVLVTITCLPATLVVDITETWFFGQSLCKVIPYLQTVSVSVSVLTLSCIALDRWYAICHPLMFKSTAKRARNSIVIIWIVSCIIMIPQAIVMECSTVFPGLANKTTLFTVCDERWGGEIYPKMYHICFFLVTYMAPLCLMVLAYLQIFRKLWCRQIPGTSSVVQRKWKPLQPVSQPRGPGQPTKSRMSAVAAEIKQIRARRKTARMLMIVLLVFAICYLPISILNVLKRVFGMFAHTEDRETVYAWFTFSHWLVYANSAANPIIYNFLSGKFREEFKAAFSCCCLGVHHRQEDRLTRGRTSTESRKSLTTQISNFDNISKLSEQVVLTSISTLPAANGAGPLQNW

[7] = biological target: Phosphoethanolamine/phosphocholine phosphatase (Homo sapiens, UniProt Q8TCT1); assay: SAR assay for compounds that inhibit PHOSPHO1. [Related pubchem assays (depositor defined):AID1545, AID1565, AID1574]
Phosphoethanolamine/phosphocholine phosphatase, sequence (Q8TCT1 whole entry): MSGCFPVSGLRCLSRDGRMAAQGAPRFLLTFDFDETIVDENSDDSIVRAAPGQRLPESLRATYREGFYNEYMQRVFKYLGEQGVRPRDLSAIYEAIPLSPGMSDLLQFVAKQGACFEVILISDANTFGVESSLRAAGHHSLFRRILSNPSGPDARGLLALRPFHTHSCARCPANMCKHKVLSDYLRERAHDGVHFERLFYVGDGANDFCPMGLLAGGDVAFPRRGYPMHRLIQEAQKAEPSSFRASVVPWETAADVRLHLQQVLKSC

[8] = Counterscreen for IDE inhibitors: Luminescence-based cell-based high throughput dose response assay to identify compounds that are cytotoxic to HEK cells. [Related pubchem assays: 434962 (Primary screen (IDE inhibitors in singlicate)), 449730 (Counterscreen (Cytotoxicity in triplicate)), 435028 (Confirmation (IDE inhibitors in triplicate)) …; assay type: functional; settings: HEK293
[9] = biological target: DNA dC->dU-editing enzyme APOBEC-3G (Homo sapiens, UniProt Q9HC16); assay: Dose Response confirmation of small molecule APOBEC3G DNA Deaminase Inhibitors via a fluorescence-based single-stranded DNA deaminase assay. [Related pubchem assays (depositor defined):AID493012, AID493028]; assay type: functional
DNA dC->dU-editing enzyme APOBEC-3G, sequence (Q9HC16 whole entry): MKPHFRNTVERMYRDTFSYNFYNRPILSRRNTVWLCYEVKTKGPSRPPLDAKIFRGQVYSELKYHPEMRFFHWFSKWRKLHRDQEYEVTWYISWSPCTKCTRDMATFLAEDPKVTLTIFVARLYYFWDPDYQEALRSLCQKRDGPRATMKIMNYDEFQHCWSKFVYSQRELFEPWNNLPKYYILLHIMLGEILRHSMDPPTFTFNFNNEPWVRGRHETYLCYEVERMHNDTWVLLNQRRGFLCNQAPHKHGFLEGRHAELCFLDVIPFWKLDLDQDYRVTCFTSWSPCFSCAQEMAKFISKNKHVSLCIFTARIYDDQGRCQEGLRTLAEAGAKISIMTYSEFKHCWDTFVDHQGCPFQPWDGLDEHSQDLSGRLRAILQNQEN

[10] = biological target: FAD-linked sulfhydryl oxidase ALR (Homo sapiens, UniProt P55789); assay: ALR-catalysed DTT oxidation blockers – biochemical, H2O2 detection, luminescence, cherry-pick, dose response (AID 493248)
FAD-linked sulfhydryl oxidase ALR, sequence (P55789 whole entry): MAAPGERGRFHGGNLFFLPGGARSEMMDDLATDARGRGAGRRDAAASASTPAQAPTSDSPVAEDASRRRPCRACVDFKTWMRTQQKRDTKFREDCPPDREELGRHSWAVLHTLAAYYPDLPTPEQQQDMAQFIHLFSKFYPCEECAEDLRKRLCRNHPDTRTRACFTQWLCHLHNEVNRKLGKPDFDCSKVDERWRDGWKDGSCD

[11] = biological target: Endoplasmic reticulum aminopeptidase 1 (Homo sapiens, UniProt Q9NZ08); assay: inhibition of human ERAP1 enzyme activity – biochemical, cherry-pick, set 2, plate reader, dose response (AID 743314)
Endoplasmic reticulum aminopeptidase 1, sequence (Q9NZ08 whole entry): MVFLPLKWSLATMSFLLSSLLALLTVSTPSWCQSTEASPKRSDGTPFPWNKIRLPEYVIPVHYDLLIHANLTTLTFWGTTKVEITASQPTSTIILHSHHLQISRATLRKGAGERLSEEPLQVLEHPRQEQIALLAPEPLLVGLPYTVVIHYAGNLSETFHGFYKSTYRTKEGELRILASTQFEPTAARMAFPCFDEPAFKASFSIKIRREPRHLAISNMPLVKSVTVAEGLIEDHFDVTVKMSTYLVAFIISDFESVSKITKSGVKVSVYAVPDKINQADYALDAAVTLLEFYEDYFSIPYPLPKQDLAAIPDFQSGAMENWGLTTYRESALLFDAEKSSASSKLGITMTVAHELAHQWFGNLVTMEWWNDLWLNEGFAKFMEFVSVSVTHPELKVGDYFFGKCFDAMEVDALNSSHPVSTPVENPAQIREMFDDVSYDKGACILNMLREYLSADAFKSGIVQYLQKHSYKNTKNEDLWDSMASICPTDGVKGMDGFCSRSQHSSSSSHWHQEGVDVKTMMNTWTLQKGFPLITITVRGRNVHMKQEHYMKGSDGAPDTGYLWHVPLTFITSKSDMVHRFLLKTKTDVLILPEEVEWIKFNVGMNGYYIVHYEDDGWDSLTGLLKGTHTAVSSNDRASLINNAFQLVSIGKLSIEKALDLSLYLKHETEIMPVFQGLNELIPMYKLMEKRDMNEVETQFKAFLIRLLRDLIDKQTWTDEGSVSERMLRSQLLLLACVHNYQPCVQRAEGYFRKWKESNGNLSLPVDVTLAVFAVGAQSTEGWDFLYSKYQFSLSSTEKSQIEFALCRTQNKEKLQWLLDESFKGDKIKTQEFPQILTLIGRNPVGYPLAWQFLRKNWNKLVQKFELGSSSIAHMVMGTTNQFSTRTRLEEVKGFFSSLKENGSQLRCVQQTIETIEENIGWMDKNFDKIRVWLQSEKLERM

Orexin receptor type 2 [12] = biological target: T5, Orexin receptor type 2; assay: Counterscreen assay for antagonists of the orexin 1 receptor (OX1R; HCRTR1): Homogeneous Time Resolved Fluorescence (HTRF)-based cell-based dose response assay for antagonists of the orexin 2 receptor (OX2R; HCRTR2), run by assay provider.; assay type: functional
Phosphomannomutase 2 = biological target: T6, Phosphomannomutase 2 (Homo sapiens, UniProt O15305); assay: Counter screen SAR assay for PMM2 inhibitors via a fluorescence intensity assay. [Related pubchem assays (depositor defined):AID1545, AID1574]
T6 sequence (O15305 whole entry): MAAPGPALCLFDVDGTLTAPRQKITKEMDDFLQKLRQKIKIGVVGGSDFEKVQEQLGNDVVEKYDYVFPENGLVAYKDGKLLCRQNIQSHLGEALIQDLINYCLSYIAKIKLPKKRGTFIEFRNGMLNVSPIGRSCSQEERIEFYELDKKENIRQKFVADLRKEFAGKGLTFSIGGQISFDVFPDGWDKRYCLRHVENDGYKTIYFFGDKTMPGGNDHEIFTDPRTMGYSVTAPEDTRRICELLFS

Interleukin-8 = Interleukin-8 (Homo sapiens, UniProt P10145); assay: Dose Response confirmation of uHTS small molecule hits for cystic fibrosis induced NFkb Inhibitors in a PAF-induced IL8 counterscreen.; assay type: functional; settings: read-out: IC50_Mean
Interleukin-8, sequence (P10145 whole entry, the tested form may be a part): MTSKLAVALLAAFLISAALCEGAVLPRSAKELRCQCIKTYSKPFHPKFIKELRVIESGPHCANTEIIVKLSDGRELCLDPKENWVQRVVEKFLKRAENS

[13] = HIV-1 AD8 envelope cell-cell fusion blockers – cherry-pick, dose response (AID 652062); assay type: functional, cell-based;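 note: luciferase signal from cell-cell fusion driven by HIV-1 clade B AD8 Env; potency is for inhibitors of fusion seen as a drop in luminescence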
[14] = off-target signal loss in HeLa-CEM21 co-culture – HeLa F-luc CTL cells, cherry-picked, counter-screen for HIV-1 Env fusion inhibitor project, dose response (AID 652040); assay type: functional, cell-based;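 note: potency for signal decrease marking cytotoxic or nonspecific inhibition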
[15] = blockers of HIV-1 ZM109 envelope-driven cell-cell fusion – HeLa effector, CEM target cells, luciferase, cherry-pick, dose response (AID 652058); assay type: functional, cell-based;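 note: luciferase signal from HIV-1 Env mediated cell-cell fusion of effector and target cells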
HEK293 = assay: EBV LMP1 TES2 canonical NF-kB signalling blockers – cell-based, HEK293, luciferase, cherry-pick, dose response (AID 588343); assay type: functional; settings: Homo sapiens
[16] = antiviral protection against BTV-induced cell death – arbovirus, BSR cells, confirmation (AID 1250); assay type: functional;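 note: protection from viral cytopathic effect measured as cell viability by ATP luminescence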
[17] = viability loss in CEM21 cells – cell-based, CellTiter-Glo luminescence, cherry-picked, cytotoxicity control for viral fusion inhibitor project, dose response (AID 652042); assay type: functional;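 note: potency for signal decrease meaning cytotoxicity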
[18] = blockers of HIV-1 envelope-mediated cell-cell fusion – cherry-pick, dose response (AID 652057); assay type: functional, cell-based

Cc1ccc(-n2c(SCC(=O)N3Cc4ccccc4CC3C(=O)O)nnc2-c2cccnc2)c(C)c1 (stereo unspecified)
inactive: IC50 [1] 24.9 µM
active: IC50 (Leucine aminopeptidase) 3.12 µM

O=C(O)c1ccccc1NS(=O)(=O)c1cccc(-n2sc3ccccc3c2=O)c1
34.8 µM (not active): IC50 [8]
inactive: IC50 [4] > 100 µM | IC50 [5] > 100 µM
active: IC50 [2] 0.707 µM | IC50 [3] 17.6 µM | IC50 (Insulin-degrading enzyme) 2.1 µM | CC50 (Vero) > 40 µM | IC50 (Large T antigen) 13.2 µM | IC50 (Genome polyprotein) 46.4 µM | IC50 (Orexin receptor type 2 [6]) 6.8 µM | IC50 [7] 0.808 µM | IC50 [9] 9.14 µM | AC50 [10] 0.243 µM | AC50 [11] 0.73 µM | IC50 (Orexin receptor type 2 [12]) 3.45 µM | IC50 (Phosphomannomutase 2) 5.15 µM

Clc1ccccc1C1=Nn2c(nnc2-c2ccncc2)SC1
active: IC50 (Interleukin-8) 8.72 µM | AC50 [13] 1.83 µM | AC50 [14] 1.96 µM | AC50 [15] 1.45 µM | AC50 (HEK293) 14.2 µM | IC50 [16] 22.6 µM | AC50 [17] 63.6 µM | AC50 [18] 3.15 µM
